This note sets out measurements from ChEMBL document CHEMBL2010710, “Flavimycins A and B, dimeric 1,3-dihydroisobenzofurans with peptide deformylase inhibitory activity from Aspergillus flavipes” (J Nat Prod, 2012).

Assay [1] relates to Staphylococcus aureus. As to the kind of experiment: Antibacterial activity against Staphylococcus aureus RN4220 after 18 hrs by broth microdilution method. To be noted: RN4220, 18 h. Type of assay: functional.
The target of assay [2] is T1, Peptide deformylase (Staphylococcus aureus) (UniProt P68826).
T1 sequence (whole entry): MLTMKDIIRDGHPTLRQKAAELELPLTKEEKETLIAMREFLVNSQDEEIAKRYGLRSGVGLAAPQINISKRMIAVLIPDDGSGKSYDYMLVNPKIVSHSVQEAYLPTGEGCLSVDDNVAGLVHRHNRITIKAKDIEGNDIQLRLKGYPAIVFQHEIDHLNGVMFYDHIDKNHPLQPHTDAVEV
Put plainly: (§1) Inhibition of Staphylococcus aureus peptide deformylase using N-formylmethionine-alanine-serine as substrate by spectrophotometry.

The target of assay [3] is T2, Peptide deformylase (Staphylococcus aureus, UniProt P68826).
T2 sequence (P68826 whole entry): T1 sequence (whole entry)
The assay is described as §1.

The subject of assay [4] is Staphylococcus aureus. Put plainly: Antibacterial activity against methicillin-resistant Staphylococcus aureus CCARM 3167 after 18 hrs by broth microdilution method. Type of assay: functional. To be noted: CCARM 3167, 18 h. (In general: In broth dilution the organism is exposed to a series of concentrations in liquid medium.)
The test system of assay [5] is Staphylococcus aureus. Put plainly: Antibacterial activity against quinolone-resistant Staphylococcus aureus CCARM 3505 after 18 hrs by broth microdilution method. Type of assay: functional. As to conditions: CCARM 3505, 18 h.

The MIC is the lowest concentration that inhibits growth of the organism. A lower MIC goes with greater potency. What is called IC50 is the concentration that gives 50% inhibition. A high value points to lower potency.

Values after ≈ are worked out from the molar mass of the structure shown.

As to `Cc1c(O)c(O)c(O)c2c1CO[C@H]2[C@H]1OC(O)c2c(C)c(O)c(O)c(O)c21` (mixture of isomers) [FLAVIMYCIN A], the MIC in assay [1], in assay [4] and in assay [5] was 32 µg/mL throughout. The inhibition result in assay [2] was “Dose-dependent effect”. The same molecule returned an IC50 in assay [3] of 35.8 µM.

As for `COCc1c(O)c(O)c(O)c2c1CO[C@H]2[C@H]1OC(O)c2c(C)c(O)c(O)c(O)c21` (mixture of isomers) [FLAVIMYCIN B], the MIC in assay [1], in assay [4] and in assay [5] was 64 µg/mL each time. Besides, the inhibition result in assay [2] is “Dose-dependent effect”. For the same molecule, inhibition in assay [3] was half-maximal at 100 µM (IC50).

Regarding `CCCCC[C@H](CC(=O)NO)C(=O)N[C@H](C(=O)N1CCC[C@H]1CO)C(C)C` [ACTINONIN], the MIC in assay [1], in assay [4] and in assay [5] was 4 µg/mL (≈ 10.4 µM) each time. For the same molecule, 0.02 µM corresponded to half-maximal inhibition in assay [3] (IC50).
